This data set is described as follows: physchem. The settings on record: pKa values.

The term pKa denotes the pH at which an ionisable group is half protonated.

Experimental: Each 800 g of this solution (equivalent to 50 mg of zoledronic acid) are titrated with • (a) a solution of 0.500 g/100 mL trisodium citrate dihydrate in water for injection • (b) a solution of 0.500 g/100 mL anhydrous sodium acetate in water for injection • (c) a solution of 0.500 g/100 mL disodium tartrate dihydrate in water for injection • (d) a solution of 0.500 g/100 mL trisodium phosphate hexahydrate in water for injection • (e) a solution of 0.400 g/100 mL sodium hydroxide in water for injection
The pH value after each addition of 200 μL of base solution is recorded potentiometrically.

`O=P(O)(O)C(O)(Cn1ccnc1)P(=O)(O)O` [zoledronic acid, 2-(imidazol-1yl)-1-hydroxyethane-1,1-diphosphonic acid] returned a pKa of 5.9.

Values taken from patent publication US7932241B2, “Pharmaceutical products comprising bisphosphonates” (Novartis AG, priority 2003, dated 2011).
